From ChEMBL document CHEMBL4376804, “Review of Transient Receptor Potential Canonical (TRPC5) Channel Modulators and Diseases” (J Med Chem, 2019)

What was measured:
[1] = molecular target: Heat sensitive channel TRPV3 (Rattus norvegicus, UniProt Q4QYD9); experiment: Inhibition of YFP-tagged rat TRPV3 expressed in HEK293 cells assessed as reduction in calcium level by fluo-4 dye based fluorescence assay; type: cell-based
[2] = Selectivity ratio of IC50 for YFP-tagged human TRPC6 expressed in thapsigargin treated HEK293 cells to IC50 for mouse TRPC5 expressed in thapsigargin treated HEK293/TREx cells; type: cell-based

Sequence of Heat sensitive channel TRPV3 (Q4QYD9 whole entry): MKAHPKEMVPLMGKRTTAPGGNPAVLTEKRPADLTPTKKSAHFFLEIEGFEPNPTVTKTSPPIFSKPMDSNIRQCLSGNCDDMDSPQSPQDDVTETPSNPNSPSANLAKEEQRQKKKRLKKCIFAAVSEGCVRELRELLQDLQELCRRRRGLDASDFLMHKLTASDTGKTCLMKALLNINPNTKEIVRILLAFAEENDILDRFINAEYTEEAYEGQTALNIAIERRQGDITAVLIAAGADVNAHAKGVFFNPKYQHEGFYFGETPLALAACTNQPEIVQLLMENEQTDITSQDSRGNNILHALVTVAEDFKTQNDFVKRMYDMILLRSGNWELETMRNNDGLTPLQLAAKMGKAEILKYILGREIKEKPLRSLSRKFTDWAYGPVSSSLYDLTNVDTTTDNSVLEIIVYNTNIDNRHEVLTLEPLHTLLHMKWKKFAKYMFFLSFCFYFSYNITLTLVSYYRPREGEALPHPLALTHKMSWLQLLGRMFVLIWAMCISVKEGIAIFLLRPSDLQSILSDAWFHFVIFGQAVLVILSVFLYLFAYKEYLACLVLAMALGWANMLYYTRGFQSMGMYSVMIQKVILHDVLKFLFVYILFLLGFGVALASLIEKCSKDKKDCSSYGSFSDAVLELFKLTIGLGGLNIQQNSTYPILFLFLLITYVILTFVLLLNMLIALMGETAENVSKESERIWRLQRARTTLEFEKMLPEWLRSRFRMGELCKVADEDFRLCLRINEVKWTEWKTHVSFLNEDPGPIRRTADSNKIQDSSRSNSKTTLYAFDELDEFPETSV

IC50 [1]: > 20 µM
Compound: Clc1ccc(Cn2c(CN3CCCC3)nc3ccccc32)cc1 [CLEMIZOLE]
Ratio IC50 [2]: 10
